Patent publication US7812042B2, “Pharmaceutical compositions and therapeutic applications for the use of a novel vitamin B12 derivative, N-acetyl-L-cysteinylcobalamin” (priority 2006, dated 2010)
Several values for one entry are separate records, joined by “and”; a condition that tells them apart may be missing. Identical values can stand only once.

Experiments:
Hsp32 = Hsp32 gene expression in SK-HEP-1 cells (RT-PCR, densitometry); type: cell-based, Human; settings: homocysteine 30 μM, folate 30 μM (2 hr), Sn(IX) protoporphyrin 25 μM, quercitin 15 μM
Method: Cells were plated into 6-, 12-, or 24-well cell culture clusters, at 2×10^3, 2×10^5, or 1×10^5 cells per well and incubated until 90% confluent. Treatments were applied as above.
Following incubation, cells were subjected to mRNA extraction followed by cDNA synthesis for each sample under test. Polymerase chain reaction cDNA templates were prepared for simplex PCR protocol. PCR products were then visualized using a UV Transilluminator and images captured using a Kodak ID gel imaging system. Densitometry and statistical analysis was then performed on each gene expression band image using PSP® v 10.0 running under Windows XP®.
mRNA extraction was performed using the Quickprep micro mRNA Purification Kit. Following incubation of cells post-treatment, the media was removed from the cells, adherent cells were re-suspended in 0.4 ml extraction buffer and 0.8 ml elution buffer at 65° C. was added.
A reaction mixture was prepared in individual microcentrifuge tubes containing 2 cDNA synthesis beads, 32 μl of the mRNA solution and 1 μl of pd(N)6. This mixture was incubated at 37° C. in a water bath for 60 minutes. After incubation, 27 μl of RNase-free DEPC treated water was added to each tube to make a total volume 60 μl. cDNA samples were prepared in duplicate. Sample 1 was used immediately in RT-PCR protocol. Sample 2 was prepared for qPCR protocol by the addition of 150 μl of 95% ice-cold ethanol and stored at −20° C.
Microcentrifuge tubes from puReTaq™Ready-To-Go™ PCR Beads containing one PCR bead were labeled for each sample required. Added to the PCR bead were 17 μl of RNase-free DEPC treated water, 1 μl sense primer, 1 μl anti-sense primer and 5 μl of the cDNA solution. RT-PCR conditions were as follows: Hsp70 and β-actin, pre-treatment step, 94° C. for 1 minute, followed by denaturing at 92° C. for 1 minute, annealing at 60° C. for 1 minute and extension at 72° C. for 1 minute. Total cycles, 30, post-treatment was then carried out at 72° C. for 10 minutes. For Hsp32, pre-treatment step, 95° C. for 2 minutes, followed by denaturing at 94° C. for 30 seconds, annealing at 58° C. for 1 minute and extension at 72° C. for 1 minute. Total cycles 45, post treatment was then carried out at 72° C. for 10 minutes. Following RT-PCR, samples were stored at −20° C.
Amplification products were separated on a 1.8% agarose gel (m/v) in TAE buffer. The size of the PCR products was determined by comparison to DNA fragments of a well-defined size; therefore, 5 μl of the DNA Ladder was carefully pipetted into the first well of the gel. Successive 10 μl of each PCR sample was then pipetted into subsequent wells on the agarose gel. The gel was connected to the Power Pack and run at 100V for 30 minutes.
Gels were visualised on a UV Transilluminator. Photographs were stored using a Kodak Digital camera system fitted with a UV filter set connected to a PC. Images were then transferred to the Kodak ID gel imaging system. Densitometry was performed on each gene expression band using PSP™ v10 running under Windows XP®.
Experiments were conducted using Hsp32 and Hsp 70 gene expression as the basis for study. […] (all treatments for 2 hours).

SK-HEP-1 cells [1] = test: NACCbl protection from homocysteine with Hsp32/Hsp70 inhibited by Sn(IX) protoporphyrin, quercitin or siRNA (MTS assay); type: cell-based, Human; settings: for cell viability (MTS), raw readings (FIG. 11): NACCbl 30 μM pre-treatment two hours with/without Sn(IX)PP, quercetin, replicates 1-6
Text: siRNAs for human HO-1 were synthesised in 2′-deprotected, duplexed, desalted and purified form by Dharmacon Research Inc., published sequences from Zhang et al., (Zhang, Shan et al. 2004). Human Hsp70 primers were from proprietary sequences, and all control non-targeting primer sequences were also synthesised by Dharmacon Research Inc.
Transfection was optimised using a standard siControl Tox protocol. All transfection experiments included non-targeted siRNA.
Cells were trypsinized and plated into 12- or 96-well plates at cell density of 2×10^5, then incubated for 24 hours until adherent. Complexed siRNA and transfection agent at 100 nm was added directly to each experimental well. Plates were incubated at 37° C. for 32.5 hours for mRNA gene analysis experiments or 72 hours for protein analysis by Western Blot.
Complexed siRNA and transfection agent was added to each well of either 12- or 96-well plates. Cells were then trypsinized and added directly into each test well at cell density of 2×10^5. Plates were incubated at 37° C. for 32.5 hours for mRNA gene analysis experiments or 72 hours for protein analysis by Western Blot.
Hsp32 was inhibited using either Sn (IX) protoporhyrin or using an siRNA which specifically knocks out Hsp32. Hsp70 was inhibited using quercitin or using an siRNA which specifically knocks out Hsp70. In addition, two methods were used to inhibit both Hsp32 and Hsp70: chemically Sn (IX) protoporphyrin plus quercitin was used; and then, directly, a combination of the siRNA for both genes was used simultaneously.

SK-HEP-1 cells [2] = test: Effect of high concentrations of NACCbl and GSCbl on SK-HEP-1 cells (MTS assay); type: cell-based, Human; design: cell viability (MTS), raw readings (FIG. 13): reference not given here; settings: 24 hours; for cell viability (MTS), raw readings (FIG. 13): 3 replicates
U937 (monocytes) = test: Survival of U937 cells at variable concentration of Hcy; type: cell-based; settings: NACCbl 30 μM, NAC 75 μM, CNCbl 15 μM, folate 30 μM; especially at higher homocysteine concentrations
Method: (§1) Additional cell studies were conducted using Jurkat (T-cells) and U937 (monocyte) cell lines. These experiments confirmed that other cell types are killed by homocysteine, although these cell lines are not as sensitive as the SK-HEP-1 cell line discussed in the experiments above and are thus more resistant to homocysteine. Cells were exposed to NACCbl 30 μM, NAC 75 μM, CNCbl 15 μM, and folate 30 μM. […] In these Figures, the monocytes are N=6 and concentrations are as follows: NACCbl 30 μM, NAC 75 μM, CNCbl 15 μM, Folate 30 μM

Jurkat (T-cells) = test: Survival of Jurkat cells at variable concentration of Hcy; type: cell-based; settings: NACCbl 30 μM, NAC 75 μM, CNCbl 15 μM, folate 30 μM; especially at higher homocysteine concentrations
Method: as §1

SMILES: CC(=O)NC(C[S-])C(=O)O.CC1=C2N=C(C=C3N=C(C(C)=C4[N-]C(C(CC(N)=O)C4(C)CCC(=O)NCC(C)OP(=O)([O-])OC4C(CO)OC(n5cnc6cc(C)c(C)cc65)C4O)C4(C)N=C1C(CCC(N)=O)C4(C)CC(N)=O)C(CCC(N)=O)C3(C)C)C(CCC(N)=O)C2(C)CC(N)=O.[Co+3] [NACCbl, N-acetyl-L-cysteinylcobalamin]
- effect on Hsp32 gene expression (Hsp32): induce Hsp32
- cell viability (MTS), raw readings (FIG. 11) (SK-HEP-1 cells [1]; Hcy 0): 2.885 and 2.698 and 2.821 and 2.771 and 2.691 and 2.7
- cell viability (MTS), raw readings (FIG. 11) (SK-HEP-1 cells [1]; Hcy 1.78 (μM) two hours, where named): 2.647 and 2.551 and 2.789 and 2.89 and 2.549 and 2.611
- cell viability (MTS), raw readings (FIG. 11) (SK-HEP-1 cells [1]; Hcy 3.125 (μM) two hours, where named): 2.453 and 2.338 and 2.36 and 2.317 and 2.418 and 2.535
- cell viability (MTS), raw readings (FIG. 11) (SK-HEP-1 cells [1]; Hcy 6.25 (μM) two hours, where named): 2.41 and 2.4 and 2.322 and 2.201 and 2.115 and 2.187
- cell viability (MTS), raw readings (FIG. 11) (SK-HEP-1 cells [1]; Hcy 12.5 (μM) two hours, where named): 2.21 and 2.11 and 2.045 and 2.065 and 2.101 and 2.324
- cell viability (MTS), raw readings (FIG. 11) (SK-HEP-1 cells [1]; Hcy 25 (μM) two hours, where named): 2.1 and 2.19 and 1.879 and 1.937 and 1.779 and 1.837
- cell viability (MTS), raw readings (FIG. 11) (SK-HEP-1 cells [1]; Hcy 50 (μM) two hours, where named): 1.678 and 1.832 and 1.881 and 1.73 and 1.74 and 1.855
- cell viability (MTS), raw readings (FIG. 11) (SK-HEP-1 cells [1]; Hcy 100 (μM) two hours, where named): 1.678 and 1.592 and 1.694 and 1.773 and 1.732 and 1.639
- cell viability (MTS), raw readings (FIG. 11) (SK-HEP-1 cells [1]; Hcy 200 (μM) two hours, where named): 1.378 and 1.167 and 1.33 and 1.456 and 1.491 and 1.537
- effect of inhibition of both Hsp32 and Hsp70 together on protection by NACCbl (SK-HEP-1 cells [1]; both methods (chemically and directly), NACCbl 30 μM): totally removed protection
- survival (SK-HEP-1 cells [2]; 10 mM): over 60%
- cell viability (MTS), raw readings (FIG. 13) (SK-HEP-1 cells [2]; compound conc. 0.61 (μM scale)): 2.572 and 2.498 and 2.473
- cell viability (MTS), raw readings (FIG. 13) (SK-HEP-1 cells [2]; compound conc. 1.22 (μM scale)): 2.546 and 2.524 and 2.538
- cell viability (MTS), raw readings (FIG. 13) (SK-HEP-1 cells [2]; compound conc. 2.441 (μM scale)): 2.592 and 2.536 and 2.499
- cell viability (MTS), raw readings (FIG. 13) (SK-HEP-1 cells [2]; compound conc. 4.882 (μM scale)): 2.532 and 2.463 and 2.457
- cell viability (MTS), raw readings (FIG. 13) (SK-HEP-1 cells [2]; compound conc. 9.765 (μM scale)): 2.505 and 2.474 and 2.514
- cell viability (MTS), raw readings (FIG. 13) (SK-HEP-1 cells [2]; compound conc. 19.531 (μM scale)): 2.485 and 2.466 and 2.502
- cell viability (MTS), raw readings (FIG. 13) (SK-HEP-1 cells [2]; compound conc. 39.062 (μM scale)): 2.503 and 2.474 and 2.453
- cell viability (MTS), raw readings (FIG. 13) (SK-HEP-1 cells [2]; compound conc. 78.125 (μM scale)): 2.521 and 2.488 and 2.475
- cell viability (MTS), raw readings (FIG. 13) (SK-HEP-1 cells [2]; compound conc. 156.25 (μM scale)): 2.484 and 2.42 and 2.492
- cell viability (MTS), raw readings (FIG. 13) (SK-HEP-1 cells [2]; compound conc. 312.5 (μM scale)): 2.409 and 2.301 and 2.437
- cell viability (MTS), raw readings (FIG. 13) (SK-HEP-1 cells [2]; compound conc. 625 (μM scale)): 2.358 and 2.242 and 2.347
- cell viability (MTS), raw readings (FIG. 13) (SK-HEP-1 cells [2]; compound conc. 1250 (μM scale)): 2.2 and 2.055 and 2.3
- cell viability (MTS), raw readings (FIG. 13) (SK-HEP-1 cells [2]; compound conc. 2500 (μM scale)): 1.989 and 1.891 and 2.085
- cell viability (MTS), raw readings (FIG. 13) (SK-HEP-1 cells [2]; compound conc. 5000 (μM scale)): 2.081 and 2.003 and 2.004
- cell viability (MTS), raw readings (FIG. 13) (SK-HEP-1 cells [2]; compound conc. 10000 (= 10 mM)): 1.908 and 1.82 and 1.732
- protection of U937 cells from death by homocysteine, comparison (U937 (monocytes)): more effective at protecting these cells from death than NAC, CN Cbl or folate
- protection of Jurkat cells from death by homocysteine, comparison (Jurkat (T-cells)): more effective at protecting these cells from death than NAC, CN Cbl or folate
